Experimental data from US20170334899A1, “AMINO-SUBSTITUTED ISOTHIAZOLES” (Bayer Pharma Aktiengesellschaft, priority 2014, published 2017).

Biological target: T1, human kinase Mps-1 (Homo sapiens, UniProt P33981)
T1 construct: N-terminally GST-tagged human full length recombinant Mps-1 kinase; GST (N); purchased Invitrogen, Karslruhe, Germany PV4071
T1 sequence (P33981 1-857): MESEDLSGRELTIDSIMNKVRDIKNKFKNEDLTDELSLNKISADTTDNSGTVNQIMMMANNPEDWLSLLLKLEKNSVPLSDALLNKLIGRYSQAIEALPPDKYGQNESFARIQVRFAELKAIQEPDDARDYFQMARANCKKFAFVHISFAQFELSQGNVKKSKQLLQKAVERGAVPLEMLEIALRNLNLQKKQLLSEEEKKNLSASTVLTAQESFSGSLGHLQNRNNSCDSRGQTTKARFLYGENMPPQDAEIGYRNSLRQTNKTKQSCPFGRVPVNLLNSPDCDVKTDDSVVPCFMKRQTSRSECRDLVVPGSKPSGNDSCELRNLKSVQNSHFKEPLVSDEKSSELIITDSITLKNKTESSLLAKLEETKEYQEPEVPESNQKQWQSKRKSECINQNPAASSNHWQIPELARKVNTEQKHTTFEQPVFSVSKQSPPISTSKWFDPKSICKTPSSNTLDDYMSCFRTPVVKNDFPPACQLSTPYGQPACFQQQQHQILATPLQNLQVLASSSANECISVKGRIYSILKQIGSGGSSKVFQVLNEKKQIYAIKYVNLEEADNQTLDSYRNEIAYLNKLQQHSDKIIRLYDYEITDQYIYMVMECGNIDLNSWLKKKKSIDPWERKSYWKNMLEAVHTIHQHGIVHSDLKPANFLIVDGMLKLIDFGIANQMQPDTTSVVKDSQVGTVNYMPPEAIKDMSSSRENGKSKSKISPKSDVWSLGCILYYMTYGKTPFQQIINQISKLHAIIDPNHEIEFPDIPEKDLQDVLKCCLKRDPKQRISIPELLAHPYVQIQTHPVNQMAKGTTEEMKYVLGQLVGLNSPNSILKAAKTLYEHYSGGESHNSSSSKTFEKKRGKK
Test: Mps-1 kinase assay (TR-FRET)
Assay type: biochemical
Conditions: Mps-1 TR-FRET kinase assay; avg; read-out: Mps1 avg (IC50 [mol/l])
Summary of the method: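 GST-tagged full-length recombinant human Mps-1 (~0.5 nM) pre-incubated 15 min with compound, then reacted 60 min at 22 °C with 10 μM ATP and 1 μM biotinylated peptide in Hepes pH 7.7 buffer. EDTA-stopped; TR-FRET (Eu anti-phospho-Ser/Thr to SA-XLent) 665/620 nm ratio normalised to no-inhibitor and no-enzyme controls.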

Compound	IC50
COCCOc1ccc(NC(=O)c2c(C)nsc2Nc2nc3c(C(F)(F)F)cccc3s2)cc1F [Example 1, N-[3-Fluoro-4-(2-methoxyethoxy)phenyl]-3-methyl-5-{[4-(trifluoromethyl)-1,3-benzothiazol-2-yl]amino}-1,2-thiazole-4-carboxamide]	≥ 20 µM
Cc1nsc(Nc2nc3c(C(F)(F)F)cccc3s2)c1C(=O)Nc1ccc(OCCO)nc1 [Example 2, N-[6-(2-Hydroxyethoxy)pyridin-3-yl]-3-methyl-5-{[4-(trifluoromethyl)-1,3-benzo-thiazol-2-yl]amino}-1,2-thiazole-4-carboxamide]	≥ 20 µM
COCCOc1ccc(NC(=O)c2c(C)nsc2Nc2nc3c(C(F)(F)F)cccc3s2)cn1 [Example 3, N-[6-(2-Methoxyethoxy)pyridin-3-yl]-3-methyl-5-{[4-(trifluoromethyl)-1,3-benzo-thiazol-2-yl]amino}-1,2-thiazole-4-carboxamide]	≥ 20 µM
Cc1nsc(Nc2nc3c(C(F)(F)F)cccc3s2)c1C(=O)Nc1ccc(OCCO)c(F)c1 [Example 4, N-[3-Fluoro-4-(2-hydroxyethoxy)phenyl]-3-methyl-5-{[4-(trifluoromethyl)-1,3-benzothiazol-2-yl]amino}-1,2-thiazole-4-carboxamide]	≥ 20 µM
Cc1nsc(Nc2cnc(C(F)(F)F)cn2)c1C(=O)Nc1ccc(OC2CCN(C(=O)OC(C)(C)C)CC2)nc1 [Example 5, tert-Butyl 4-[(5-{[(3-methyl-5-{[5-(trifluoromethyl)pyrazin-2-yl]amino}-1,2-thiazol-4-yl)carbonyl]amino}pyridin-2-yl)oxy]piperidine-1-carboxylate]	≥ 20 µM
Cc1nsc(Nc2cc(C#N)ccn2)c1C(=O)Nc1ccc(OC2CCCNC2)nc1 (stereo not drawn) [Example 35, 5-[(4-Cyanopyridin-2-yl)amino]-3-methyl-N-[6-(piperidin-3-yloxy)pyridin-3-yl]-1,2-thiazole-4-carboxamide]	≥ 20 µM
Cc1nsc(Nc2ccc(C#N)cn2)c1C(=O)Nc1ccc(OC2CCCN(C(=O)OC(C)(C)C)C2)nc1 (stereo not drawn) [Example 36, tert-Butyl 3-({5-[({5-[(5-cyanopyridin-2-yl)amino]-3-methyl-1,2-thiazol-4-yl}-carbonyl)amino]pyridin-2-yl}oxy)piperidine-1-carboxylate]	≥ 20 µM
Cc1nsc(Nc2ccc(C#N)cn2)c1C(=O)Nc1ccc(OC2CCCNC2)nc1 (stereo not drawn) [Example 37, 5-[(5-Cyanopyridin-2-yl)amino]-3-methyl-N-[6-(piperidin-3-yloxy)pyridin-3-yl]-1,2-thiazole-4-carboxamide]	≥ 20 µM
Cc1nsc(Nc2ccc(C#N)cn2)c1C(=O)Nc1ccc(OC2CCCN(CCF)C2)nc1 (stereo not drawn) [Example 38, 5-[(5-Cyanopyridin-2-yl)amino]-N-(6-{[1-(2-fluoroethyl)piperidin-3-yl]oxy}pyridin-3-yl)-3-methyl-1,2-thiazole-4-carboxamide]	≥ 20 µM
Cc1nsc(Nc2ccc(C#N)cn2)c1C(=O)Nc1ccc(OC2CCCN(CC(F)F)C2)nc1 (stereo not drawn) [Example 39, 5-[(5-Cyanopyridin-2-yl)amino]-N-(6-{[1-(2,2-difluoroethyl)piperidin-3-yl]oxy}-pyridin-3-yl)-3-methyl-1,2-thiazole-4-carboxamide]	≥ 20 µM
Cc1nsc(Nc2ccc(C#N)cn2)c1C(=O)Nc1ccc(OC2CCCN(CC(F)(F)F)C2)nc1 (stereo not drawn) [Example 40, 5-[(5-Cyanopyridin-2-yl)amino]-3-methyl-N-(6-{[1-(2,2,2-trifluoroethyl)piperidin-3-yl]oxy}pyridin-3-yl)-1,2-thiazole-4-carboxamide]	≥ 20 µM
Cc1nsc(Nc2cnccn2)c1C(=O)Nc1ccc(OC2CCCN(C(=O)OC(C)(C)C)C2)nc1 (stereo not drawn) [Example 41, tert-Butyl 3-{[5-({[3-methyl-5-(pyrazin-2-ylamino)-1,2-thiazol-4-yl]carbonyl}amino)-pyridin-2-yl]oxy}piperidine-1-carboxylate]	≥ 20 µM
Cc1nsc(Nc2cnc3ccccc3n2)c1C(=O)Nc1ccc(OCCCNC(=O)OC(C)(C)C)nc1 [Example 42, tert-Butyl (3-{[5-({[3-methyl-5-(quinoxalin-2-ylamino)-1,2-thiazol-4-yl]carbonyl}-amino)pyridin-2-yl]oxy}propyl)carbamate]	≥ 20 µM
Cc1nsc(Nc2cc(C#N)ccn2)c1C(=O)Nc1ccc(OCCCNC(=O)OC(C)(C)C)nc1 [Example 43, tert-Butyl [3-({5-[({5-[(4-cyanopyridin-2-yl)amino]-3-methyl-1,2-thiazol-4-yl}-carbonyl)amino]pyridin-2-yl}oxy)propyl]carbamate]	≥ 20 µM
Cc1nsc(Nc2cc(C#N)ccn2)c1C(=O)Nc1ccc(OCCCN)nc1 [Example 44, N-[6-(3-Aminopropoxy)pyridin-3-yl]-5-[(4-cyanopyridin-2-yl)amino]-3-methyl-1,2-thiazole-4-carboxamide]	≥ 20 µM
Cc1nsc(Nc2cc(C#N)ccn2)c1C(=O)Nc1ccc(OCCCNCC(F)F)nc1 [Example 45, 5-[(4-Cyanopyridin-2-yl)amino]-N-(6-{3-[(2,2-difluoroethyl)amino]propoxy}pyridin-3-yl)-3-methyl-1,2-thiazole-4-carboxamide]	≥ 20 µM
Cc1nsc(Nc2ccc(C#N)cn2)c1C(=O)Nc1ccc(OCCCNC(=O)OC(C)(C)C)nc1 [Example 46, tert-Butyl [3-({5-[({5-[(5-cyanopyridin-2-yl)amino]-3-methyl-1,2-thiazol-4-yl}-carbonyl)amino]pyridin-2-yl}oxy)propyl]carbamate]	≥ 20 µM
Cc1nsc(Nc2cnccn2)c1C(=O)Nc1ccc(OCCCNC(=O)OC(C)(C)C)nc1 [Example 47, tert-Butyl (3-{[5-({[3-methyl-5-(pyrazin-2-ylamino)-1,2-thiazol-4-yl]carbonyl}-amino)pyridin-2-yl]oxy}propyl)carbamate]	≥ 20 µM
Cc1nsc(Nc2cnccn2)c1C(=O)Nc1ccc(OCCCN)nc1 [Example 48, N-[6-(3-Aminopropoxy)pyridin-3-yl]-3-methyl-5-(pyrazin-2-ylamino)-1,2-thiazole-4-carboxamide]	≥ 20 µM
Cc1nsc(Nc2cnc3ccccc3n2)c1C(=O)Nc1cccc(C(=O)OC(C)(C)C)c1 [Example 49, tert-Butyl 3-({[3-methyl-5-(quinoxalin-2-ylamino)-1,2-thiazol-4-yl]carbonyl}amino)-benzoate]	≥ 20 µM
COC(=O)c1cccc(NC(=O)c2c(C)nsc2Nc2cnc3ccccc3n2)c1 [Example 50, Methyl 3-({[3-methyl-5-(quinoxalin-2-ylamino)-1,2-thiazol-4-yl]carbonyl}amino)-benzoate]	2.5 µM
Cc1nsc(Nc2cnc3ccccc3n2)c1C(=O)Nc1cccc(C(=O)N2CCOCC2)c1 [Example 52, 3-Methyl-N-[3-(morpholin-4-ylcarbonyl)phenyl]-5-(quinoxalin-2-ylamino)-1,2-thiazole-4-carboxamide]	18 µM
Cc1nsc(Nc2cnc3ccccc3n2)c1C(=O)Nc1cccc(C(=O)NC(C)(C)C)c1 [Example 53, N-[3-(tert-Butylcarbamoyl)-phenyl]-3-methyl-5-(quinoxalin-2-ylamino)-1,2-thiazole-4-carboxamide]	≥ 20 µM
Cc1nsc(Nc2cnc3ccccc3n2)c1C(=O)Nc1cccc(C(=O)N2CCN(C(=O)OC(C)(C)C)CC2)c1 [Example 55, tert-Butyl 4-[3-({[3-methyl-5-(quinoxalin-2-ylamino)-1,2-thiazol-4-yl]carbonyl}amino)-benzoyl]piperazine-1-carboxylate]	≥ 20 µM
